Consider nine molecules from publication PMC8720286 (Chemical biology & drug design, 2020).

SMILES strings stand for the structures. In brackets after ≈: the same amount, converted by molar mass.

In one data set the test system is Mtb H37Rv. Put plainly: MIC determination by microplate AlamarBlue assay. The note with it: for anti-TB activity in words: susceptible strain of Mtb, SAR discussion; for fold more potent against M.tb than counterparts 3 - 5 with no carbon spacer: 9 vs 3, 10 vs 4, 11 vs 5; for Mtb MIC H37Rv/DS: Table 2, H37Rv drug-sensitive. (The colour change of resazurin is a common sign of viable cells or microbes.)

In the next data set the test system is Mtb V4207/DS. In words: microbe, parasite or virus in culture. Type of data set: cell-based. Particulars: Mycobacterium tuberculosis, read-out: Mtb MIC V4207/DS.
The next data set relates to clinical isolates of Mtb. The class given is cell-based, Mycobacterium tuberculosis. The note with it: for MIC range against MDR and XDR strains of TB: range over both compounds and strains; for fold drop in activity against the tested clinical isolates of Mtb: relative to H37Rv MIC.
The subject of a further data set is Mtb KZN494/MDR. In words: microbe, parasite or virus in culture. The note with it: relative to H37Rv MIC. The class given is cell-based, Mycobacterium tuberculosis.
Data set [1] in a line: in vitro. The class given is cell-based. Particulars: African green monkey.
In the next data set the test system is Vero cells. In words: in vitro. Type of data set: cell-based. The note with it: IC50 (Vero)/MIC.
The target in a further data set is CYP3A4 (Homo sapiens, UniProt P08684). Put plainly: CYP inhibition, CYP3A4. Type of data set: in vitro ADME. The note with it: probe midazolam.
The target of the next data set is T1, CYP1A2 (Homo sapiens, UniProt P05177).
T1 sequence (P05177 1-516): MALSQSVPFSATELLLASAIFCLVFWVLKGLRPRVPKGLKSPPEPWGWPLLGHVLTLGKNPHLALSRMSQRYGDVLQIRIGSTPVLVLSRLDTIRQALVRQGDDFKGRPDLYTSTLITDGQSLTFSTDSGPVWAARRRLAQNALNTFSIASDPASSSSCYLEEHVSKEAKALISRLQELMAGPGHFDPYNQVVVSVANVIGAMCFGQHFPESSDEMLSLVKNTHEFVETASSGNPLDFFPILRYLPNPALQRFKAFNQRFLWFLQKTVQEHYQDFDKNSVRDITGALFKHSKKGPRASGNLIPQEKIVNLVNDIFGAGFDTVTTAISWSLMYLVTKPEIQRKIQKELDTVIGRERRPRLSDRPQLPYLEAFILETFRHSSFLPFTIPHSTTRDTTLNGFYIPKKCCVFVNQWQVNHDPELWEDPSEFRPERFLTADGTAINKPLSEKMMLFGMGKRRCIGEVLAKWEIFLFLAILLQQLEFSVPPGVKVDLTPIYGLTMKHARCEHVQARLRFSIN
In words: CYP inhibition, CYP1A2. The class given is in vitro ADME.

The nature of data set [2]: in vitro. The class given is in vitro ADME. The note with it: mouse, microsomes, Liver microsomes, % remaining after 1 hr (mouse).
Data set [3] in a line: in vitro. The note with it: mouse, plasma. Type of data set: in vitro ADME.
In data set [4] the target is human Ether-à-go-go related gene (hERG) channel (Homo sapiens, UniProt Q12809). Put plainly: hERG channel inhibition, manual patch-clamp. The class given is cell-based. In general terms: hERG is a cardiac potassium channel; its block is linked to QT prolongation.
For another data set, the target named is hERG (Homo sapiens, UniProt Q12809). Put plainly: hERG channel inhibition, manual patch-clamp. Type of data set: cell-based. The note with it: human.
Data set [5] is described as follows: in vitro. The class given is in vitro ADME. The note with it: human, plasma.
Data set [6] in a line: in vitro. Type of data set: in vitro ADME.
Another data set concerns the target CYP2C9 (Homo sapiens, UniProt P11712). In words: CYP inhibition, CYP2C9. Type of data set: in vitro ADME.
The target in a further data set is CYP2D6 (Homo sapiens, UniProt P10635). Put plainly: CYP inhibition, CYP2D6. The class given is in vitro ADME.
Another data set concerns the target CYP2C19 (Homo sapiens, UniProt P33261). Put plainly: CYP inhibition, CYP2C19. The class given is in vitro ADME.
Data set [7] in a line: in vitro. The note with it: human, microsomes, Liver microsomes, % remaining after 1 hr (human). Type of data set: in vitro ADME. On the technique in general: Liver microsomes are a subcellular fraction often used to study metabolism.

Sequence of CYP3A4 (P08684 whole entry): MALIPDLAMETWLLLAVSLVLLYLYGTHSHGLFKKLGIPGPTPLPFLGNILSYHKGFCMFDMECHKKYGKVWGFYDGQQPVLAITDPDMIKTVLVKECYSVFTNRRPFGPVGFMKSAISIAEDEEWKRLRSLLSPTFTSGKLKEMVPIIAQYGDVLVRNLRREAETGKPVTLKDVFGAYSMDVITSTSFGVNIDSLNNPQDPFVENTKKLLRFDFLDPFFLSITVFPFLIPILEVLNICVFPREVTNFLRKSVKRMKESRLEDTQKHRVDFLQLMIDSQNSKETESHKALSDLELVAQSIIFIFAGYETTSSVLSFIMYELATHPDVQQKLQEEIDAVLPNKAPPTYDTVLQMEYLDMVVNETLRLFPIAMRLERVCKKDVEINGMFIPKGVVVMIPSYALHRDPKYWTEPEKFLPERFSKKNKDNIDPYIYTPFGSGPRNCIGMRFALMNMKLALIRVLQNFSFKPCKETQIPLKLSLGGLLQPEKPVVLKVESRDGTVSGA
Sequence of CYP2D6 (P10635 whole entry): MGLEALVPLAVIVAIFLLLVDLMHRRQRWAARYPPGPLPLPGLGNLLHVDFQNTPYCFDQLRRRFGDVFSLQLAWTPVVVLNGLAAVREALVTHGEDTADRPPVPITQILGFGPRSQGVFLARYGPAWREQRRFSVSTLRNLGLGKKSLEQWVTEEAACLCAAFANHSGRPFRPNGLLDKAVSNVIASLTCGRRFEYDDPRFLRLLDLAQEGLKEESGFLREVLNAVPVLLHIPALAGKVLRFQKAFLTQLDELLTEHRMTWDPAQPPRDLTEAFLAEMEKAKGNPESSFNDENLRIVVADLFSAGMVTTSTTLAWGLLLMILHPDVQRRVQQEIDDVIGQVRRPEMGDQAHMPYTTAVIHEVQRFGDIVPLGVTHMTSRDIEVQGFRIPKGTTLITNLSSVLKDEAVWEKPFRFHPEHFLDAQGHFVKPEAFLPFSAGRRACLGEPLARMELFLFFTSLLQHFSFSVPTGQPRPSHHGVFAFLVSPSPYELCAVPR
Sequence of CYP2C9 (P11712 whole entry): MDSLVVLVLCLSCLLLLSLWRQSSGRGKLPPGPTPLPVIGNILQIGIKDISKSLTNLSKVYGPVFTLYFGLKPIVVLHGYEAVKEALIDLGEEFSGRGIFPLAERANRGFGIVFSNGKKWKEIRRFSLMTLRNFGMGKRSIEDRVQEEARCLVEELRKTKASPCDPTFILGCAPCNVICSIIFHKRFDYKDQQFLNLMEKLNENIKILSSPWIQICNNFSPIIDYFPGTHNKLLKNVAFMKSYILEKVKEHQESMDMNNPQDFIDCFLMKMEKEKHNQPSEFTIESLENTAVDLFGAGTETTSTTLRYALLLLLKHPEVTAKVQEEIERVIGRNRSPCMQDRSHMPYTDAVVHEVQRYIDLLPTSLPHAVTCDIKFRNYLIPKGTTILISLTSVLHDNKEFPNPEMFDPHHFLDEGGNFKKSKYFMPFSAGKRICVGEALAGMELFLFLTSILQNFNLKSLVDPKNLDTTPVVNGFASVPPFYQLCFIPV
Sequence of human Ether-à-go-go related gene (hERG) channel (Q12809 whole entry): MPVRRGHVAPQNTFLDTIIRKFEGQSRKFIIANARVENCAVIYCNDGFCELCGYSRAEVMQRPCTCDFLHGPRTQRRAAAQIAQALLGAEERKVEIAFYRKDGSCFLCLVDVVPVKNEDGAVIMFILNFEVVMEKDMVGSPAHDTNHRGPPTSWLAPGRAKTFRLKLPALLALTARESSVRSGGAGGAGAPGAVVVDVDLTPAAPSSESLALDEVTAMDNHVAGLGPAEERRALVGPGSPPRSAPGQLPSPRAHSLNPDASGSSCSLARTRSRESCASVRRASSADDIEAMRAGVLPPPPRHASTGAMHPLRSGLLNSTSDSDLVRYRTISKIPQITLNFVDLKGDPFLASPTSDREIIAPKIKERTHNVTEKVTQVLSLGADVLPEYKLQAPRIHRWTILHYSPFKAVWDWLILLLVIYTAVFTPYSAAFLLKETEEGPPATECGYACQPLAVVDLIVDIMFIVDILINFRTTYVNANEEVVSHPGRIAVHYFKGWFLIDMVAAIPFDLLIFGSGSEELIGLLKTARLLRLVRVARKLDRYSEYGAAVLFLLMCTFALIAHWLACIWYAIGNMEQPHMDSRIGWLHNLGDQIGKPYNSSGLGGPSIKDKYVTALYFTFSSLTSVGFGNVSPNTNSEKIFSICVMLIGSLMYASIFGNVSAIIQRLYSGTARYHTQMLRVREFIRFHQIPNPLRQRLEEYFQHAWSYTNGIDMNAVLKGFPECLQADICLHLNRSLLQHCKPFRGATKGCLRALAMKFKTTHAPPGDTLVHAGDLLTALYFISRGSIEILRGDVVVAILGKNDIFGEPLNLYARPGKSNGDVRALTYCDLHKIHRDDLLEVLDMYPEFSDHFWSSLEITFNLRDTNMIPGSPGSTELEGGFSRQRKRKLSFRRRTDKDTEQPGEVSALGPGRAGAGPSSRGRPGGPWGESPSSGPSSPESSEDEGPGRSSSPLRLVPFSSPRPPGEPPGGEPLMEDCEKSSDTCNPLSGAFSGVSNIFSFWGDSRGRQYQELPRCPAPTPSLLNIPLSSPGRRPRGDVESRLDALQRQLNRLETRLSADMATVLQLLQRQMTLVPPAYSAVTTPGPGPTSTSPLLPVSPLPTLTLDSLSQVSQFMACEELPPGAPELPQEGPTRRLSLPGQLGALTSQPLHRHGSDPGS
Sequence of hERG (Q12809 whole entry): as above
Sequence of CYP2C19 (P33261 whole entry): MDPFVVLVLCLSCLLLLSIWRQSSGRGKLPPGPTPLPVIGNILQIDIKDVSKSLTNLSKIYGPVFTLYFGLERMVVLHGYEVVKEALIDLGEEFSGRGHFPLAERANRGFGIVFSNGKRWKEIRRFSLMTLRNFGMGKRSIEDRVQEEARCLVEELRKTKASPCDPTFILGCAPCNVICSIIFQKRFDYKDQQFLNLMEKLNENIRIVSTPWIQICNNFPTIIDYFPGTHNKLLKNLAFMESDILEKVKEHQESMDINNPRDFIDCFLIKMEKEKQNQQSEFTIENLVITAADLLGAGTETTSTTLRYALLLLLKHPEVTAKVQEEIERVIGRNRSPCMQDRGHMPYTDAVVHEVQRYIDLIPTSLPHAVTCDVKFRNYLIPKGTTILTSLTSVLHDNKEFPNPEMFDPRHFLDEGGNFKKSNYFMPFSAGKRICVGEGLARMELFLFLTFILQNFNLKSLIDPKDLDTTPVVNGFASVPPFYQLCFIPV

`O=C(NCCCC1CCCCC1)c1cn2ccc(Cl)cc2n1` [Compound 19, 7-chloro-N-(3-cyclohexylpropyl)imidazo[1,2-a]pyridine-2-carboxamide]: the “anti-TB activity in words” value with Mtb H37Rv is reported as “less active”.
For `Cc1ccc2nc(C)c(C(=O)NCC3CCCCCCC3)n2c1` [Compound 11, N-(cyclooctylmethyl)-2,6-dimethylimidazo[1,2-a]pyridine-3-carboxamide], in the data set on Mtb H37Rv (ratio of MIC), the “fold more potent against M.tb than counterparts 3 - 5 with no carbon spacer” value (shortened to “fold more potent … with no carbon spacer”) was 133 fold.
In the case of `Cc1ccc2nc(C)c(C(=O)NCC3CCCCCC3)n2c1` [Compound 10, N-(cycloheptylmethyl)-2,6-dimethylimidazo[1,2-a]pyridine-3-carboxamide], in the data set on Mtb H37Rv (ratio of MIC), the “fold more potent … with no carbon spacer” value was found to be 133 fold.
On to `O=C(NC1CCCCCCC1)c1cn2ccc(Cl)cc2n1` [Compound 18, 7-chloro-N-cyclooctylimidazo[1,2-a]pyridine-2-carboxamide], for which the “anti-TB activity in words” value in the data set with Mtb H37Rv was “less active”.
As a reminder, the IC50 is the concentration needed to halve the response being measured. For the molecule `Cc1ccc2nc(C)c(C(=O)NCCCC3CCCCC3)n2c1` [Compound 15, N-(3-cyclohexylpropyl)-2,6-dimethylimidazo[1,2-a]pyridine-3-carboxamide], the MIC in the data set with Mtb V4207/DS stood at 0.1 µM (≈ 0.0313 µg/mL). In addition, in the data set with Mtb H37Rv (ratio of MIC), the “fold more active than isoniazid against H37Rv” value was 1.5 - 3 fold; the “fold more active than compounds 9 and 13” value stood at 4 fold. The “Mtb MIC H37Rv/DS” value in the data set on Mtb H37Rv turned out to be 0.10 µM. Moreover, in the data set with clinical isolates of Mtb, the “MIC range against MDR and XDR strains of TB” value is 0.05 to 1.5 µM; the “fold drop in activity against the tested clinical isolates of Mtb” value was “up to 2 fold”. The “fold increase in activity against MDR Mtb strain KZN494” value with Mtb KZN494/MDR came out at 2 fold. The IC50 at 72 h in the data set “in vitro [1]” was found to be 102 µM. For the same molecule, the “SI, Selectivity index = IC50 (Vero)/MIC” value with Vero cells came out at 1024.
For the molecule `Cc1ccc2nc(C)c(C(=O)NCC34CC5CC(CC(C5)C3)C4)n2c1` [Compound 12, N-(adamantan-1-ylmethyl)-2,6-dimethylimidazo[1,2-a]pyridine-3-carboxamide], the “anti-TB activity in words” value in the data set with Mtb H37Rv is “poor anti-TB activity”.
For the molecule `Cc1ccc2nc(C)c(C(=O)NCC3CCCCC3)n2c1` [Compound 9, N-(cyclohexylmethyl)-2,6-dimethylimidazo[1,2-a]pyridine-3-carboxamide], the “fold more potent … with no carbon spacer” value with Mtb H37Rv (ratio of MIC) stood at 267 fold.
A word on the inhibition: it is how much of the control response was suppressed. In general, share remaining refers to the share of the starting amount still present when the sample was taken. A word on the fraction unbound: it is the share of the substance not bound to proteins or other matrix. Take `Cc1nc2ccc(Cl)cn2c1C(=O)NCCCC1CCCCC1` [Compound 16, 6-chloro-N-(3-cyclohexylpropyl)-2-methylimidazo[1,2-a]pyridine-3-carboxamide]: the inhibition at 10 µM against CYP3A4 is 52.2%; on CYP1A2, 26.3%; at hERG, 29.1%; at CYP2C9, 32.2%; against CYP2D6, 16.4%; at CYP2C19 it was 45.2%. The amount remaining at 1 h, 1 μM in the data set “in vitro [2]” was about 0.15%; in the data set “in vitro [7]”, about 1.5%. For the same molecule, the values for the fraction unbound in “in vitro [3]” and in the data set “in vitro [5]” were 0.0036 and 0.0011, respectively. For the same molecule, the IC50 in data set [4] is over 10 µM. Besides, in the data set with Mtb V4207/DS, the MIC turned out to be 0.37 µM (≈ 0.124 µg/mL). The “% degraded after 2 hours incubation with human hepatocyte” value in “in vitro [6]” (2 h, 1 μM) is on record as “over 95%”. In the data set “in vitro [6]” (human, hepatocytes), this molecule showed a fraction remaining at 2 h, 1 μM of 0.19%. Besides, in the data set with Mtb H37Rv (ratio of MIC), the “fold more active than isoniazid against H37Rv” value is listed as 1.5 - 3 fold. Besides, in the data set with Mtb H37Rv, the “Mtb MIC H37Rv/DS” value was found to be 0.19 µM. For the same molecule, the “fold drop in activity relative to compound 15” value in the data set on Mtb H37Rv (ratio of MIC) is listed as “approximately 2 fold”. The “MIC range against MDR and XDR strains of TB” value with clinical isolates of Mtb was in the range of 0.05 to 1.5 µM. Besides, the “fold drop in activity against the tested clinical isolates of Mtb” value in the data set with clinical isolates of Mtb is recorded as “up to 8 fold”. Also, the “fold increase in activity against MDR Mtb strain KZN494” value in the data set on Mtb KZN494/MDR amounted to 2 fold. This molecule came in with an IC50 at 72 h in “in vitro [1]” of at least 192 µM. Besides, the “SI, Selectivity index = IC50 (Vero)/MIC” value in the data set on Vero cells was at least 1024.
Regarding `O=C(NCCCC1CCCCC1)c1c(-c2ccccc2)nc2cc(Cl)ccn12` [Compound 17, 7-chloro-N-(3-cyclohexylpropyl)-2-phenylimidazo[1,2-a]pyridine-3-carboxamide], the “anti-TB activity in words” value in the data set with Mtb H37Rv is “complete loss in activity”.
